One data set concerns BVDV-1 (strain PE515). Kind of data set: Anti-BVDV assay (protection of MDBK cell monolayer from virus-induced cytopathic effect, MTS readout). The data set is classed as cell-based, Bovine Viral Diarrhea virus. The settings on record: for EC50: Bovine viral diarrhea virus isolates and strains, MDBK, 120 h, BVDV-1 in MDBK cells, 5 days incubation, concentration that protects 50% of the cell monolayer from virus-induced cytopathic effect; for SI: Selectivity index (ratio of CC50 to EC50): CC50 (MDBK cells) / EC50 (BVDV). As for the experimental part: (§1) Madin-Darbey Bovine Kidney (MDBK) cells were maintained in Dulbecco's modified Eagle medium (DMEM) supplemented with BVDV-free 5% fetal calf serum (DMEME-FCS) at 37° C. in a humidified, 5% CO2 atmosphere. BVDV-1 (strain PE515) was used to assess the antiviral activity in MDBK cells.
Ninety-six-well cell culture plates were seeded with MDBK cells in DMEM-FCS so that cells reached 24 hr later confluency. Then medium was removed and serial 5-fold dilutions of the test compounds were added in a total volume of 100 μl, after which the virus inoculum (100 μl) was added to each well. […] Uninfected cells and cells receiving virus without compound were included in each assay plate. After 5 days, medium was removed and 90 μl of DMEM-FCS and 10 μl of MTS/PMS solution (Promega) was added to each well. Following a 2 hr incubation period at 37° C. the optical density of the wells was read at 498 nm in a microplate reader.

Data set [1] can be described thus: Determination of cytostatic effect on MDBK cells (MTS method). Format: cell-based, Bovine. The settings on record: bovine, MDBK cells (exponentially growing), 3 days incubation, 50% cytostatic concentration. As for the experimental part: as §1
(§2) The effect of the drugs on exponentially growing MDBK cells was assessed as follows. Cells were seeded at a density of 5000 cell/well in 96 well plates in MEM medium (Gibco) supplemented with 10% fetal calf serum, 2 mM L-glutamine (Life Technologies) and bicarbonate (Life Technologies). Cells, were cultured for 24 hr after which serial dilutions of the test compounds were added. Cultures were then again further incubated for 3 days after which the effect on cell growth was quantified by means of the MTS method (Promega). The concentration that results in 50% inhibition of cell growth is defined as the 50% cytostatic concentration (CC50)

A further data set deals with MDBK cells. Described as above. Conditions: exponentially growing MDBK cells, 3 days incubation; 50% cytostatic concentration. Format: cell-based, Bovine. As for the experimental part:
as §1, §2

Converted amounts (≈) assume the structure as drawn. Where two headings read alike, the source gives them in different places.

With `CCOC(=O)c1cc2c3n(ccc-2n1)CC(c1cccc(OC)c1)=N3`, the melting point is 198 to 200 °C.
For the compound `CCOC(=O)c1cc2c3n(ccc-2n1)CC(CCl)=N3`, the melting point lay within 270 to 272 °C.
In turn, `CCCCc1cc2c3n(ccc-2n1)CC(C)=N3` had a melting point of 162 °C.
On to `CCOC(=O)c1cc2c3n(ccc-2n1)CC(C(OCC)OCC)=N3` [Compound 7h, Ethyl 2-diethoxymethylimidazo[1,2-a]pyrrolo[3,2-c]pyridine-8-carboxylate], for which the melting point is 242 to 244 °C. Also, in the data set on BVDV-1 (strain PE515) (read-out: EC50), the EC50 amounted to 3 mg/L (≈ 9.05 µM). In addition, the “SI: Selectivity index (ratio of CC50 to EC50)” value in the data set on BVDV-1 (strain PE515) is “±7”. This compound displayed a CC50 at 3 days in data set [1] of 22 mg/L (≈ 66.4 µM).
As for `CC1=Nc2c3cc(C(=O)O)nc-3ccn2C1` [Compound 15, 2-Methylimidazo[1,2-a]pyrrolo[3,2-c]pyridine-8-carboxylic acid], in the data set on BVDV-1 (strain PE515) (read-out: EC50), the EC50 stood at 0.5 mg/L (≈ 2.32 µM). Also, the CC50 in the data set with MDBK cells was >100 mg/L. Also, the CC50 at 3 days in data set [1] is > 100 mg/L.
Turning to `CC1=Nc2c3cc(-c4ccc(F)cc4)nc-3ccn2C1` [Compound 27b, 8-(4-fluorophenyl)-2-methylimidazo[1,2-a]pyrrolo[3,2-c]pyridine], the EC50 in the data set on BVDV-1 (strain PE515) (read-out: EC50) was found to be 1.27 mg/L (≈ 4.79 µM). Also, in the data set on BVDV-1 (strain PE515), the “SI: Selectivity index (ratio of CC50 to EC50)” value is on record as “±37”. The compound further gave a cytotoxic concentration (CC50) at 3 days in data set [1] of 47.5 mg/L (≈ 179 µM).
With `CCOC(=O)c1cc2c(ccn3cc(CN(C)C)nc23)[nH]1` [Compound 9, Ethyl 2-N,N dimethylaminomethylimidazo[1,2-a]pyrrolo[3,2-c]pyridine-8-carboxylate], in the data set on BVDV-1 (strain PE515), the EC50 came out at 3 mg/L (≈ 10.5 µM).
On to `CCOC(=O)n1c(-c2ccc(OC)cc2)cc2c1ccn1cc(C)nc21`, for which the melting point was 158 to 159 °C.
`COc1ccc(-c2cc3c4n(ccc-3n2)CC(C)=N4)cc1` displayed a melting point of 168 °C.
With `CCOC(=O)c1cc2c3n(ccc-2n1)CC(C(C)C)=N3` [Compound 7f, Ethyl 2-isopropylimidazo[1,2-a]pyrrolo[3,2-c]pyridine-8-carboxylate], the melting point was in the range of 207 to 209 °C. Moreover, the EC50 in the data set with BVDV-1 (strain PE515) (read-out: EC50) was determined as 0.6 mg/L (≈ 2.21 µM). Moreover, the “SI: Selectivity index (ratio of CC50 to EC50)” value in the data set with BVDV-1 (strain PE515) is reported as “±36”. The same compound had a CC50 at 3 days in data set [1] of 22 mg/L (≈ 81.1 µM).
Take `CCOC(=O)c1cc2c3n(ccc-2n1)CC(Br)=N3` [Compound 7i, Ethyl 2-bromoimidazo[1,2-a]pyrrolo[3,2-c]pyridine-8-carboxylate]: in the data set on BVDV-1 (strain PE515) (read-out: EC50), the EC50 came to 1.5 mg/L (≈ 4.87 µM). Also, the “SI: Selectivity index (ratio of CC50 to EC50)” value in the data set on BVDV-1 (strain PE515) is given as >33. For the same compound, the CC50 at 3 days in data set [1] was > 50 mg/L.
`CCOC(=O)n1c(-c2ccc(F)cc2)cc2c1ccn1cc(C)nc21` [Compound 26b, Ethyl 8-(4-fluorophenyl)-2-methylimidazo[1,2-a]pyrrolo[3,2-c]pyridine-7-carboxylate]: the melting point is 175 °C. Besides, the EC50 in the data set with BVDV-1 (strain PE515) (read-out: EC50) was found to be 1.25 mg/L (≈ 3.71 µM). In addition, the “SI: Selectivity index (ratio of CC50 to EC50)” value in the data set on BVDV-1 (strain PE515) is recorded as “±6”. In addition, the CC50 at 3 days in data set [1] came out at 7.9 mg/L (≈ 23.4 µM).
On to `CCOC(=O)c1cc2c3n(ccc-2n1)CC(C(F)(F)F)=N3` [Compound 7e, Ethyl 2-trifluoromethylimidazo[1,2-a]pyrrolo[3,2-c]pyridine-8-carboxylate], for which the melting point was in the range of 230 to 231 °C. In the data set on BVDV-1 (strain PE515), the EC50 was 1.5 mg/L (≈ 5.05 µM) and the “SI: Selectivity index (ratio of CC50 to EC50)” value is listed as “±33”. In addition, the CC50 at 3 days in data set [1] was > 50 mg/L.
In turn, `CCOC(=O)c1cc2c3n(ccc-2n1)CC(C)=N3` [Compound 7b, Ethyl 2-methylimidazo[1,2-a]pyrrolo[3,2-c]pyridine-8-carboxylate] had a melting point of 201 to 203 °C. For the same compound, the EC50 with BVDV-1 (strain PE515) (read-out: EC50) amounted to 0.8 mg/L (≈ 3.29 µM). For the same compound, the “SI: Selectivity index (ratio of CC50 to EC50)” value with BVDV-1 (strain PE515) is listed as “±81”. The CC50 at 3 days in data set [1] stood at 65 mg/L (≈ 267 µM).
On to `CCOC(=O)c1cc2c3n(ccc-2n1)CC(CO)=N3` [Compound 11, Ethyl 2-hydroxymethylimidazo[1,2-a]pyrrolo[3,2-c]pyridine-8-carboxylate], for which the melting point was 227 to 229 °C. Further, the EC50 in the data set on BVDV-1 (strain PE515) (read-out: EC50) was found to be 9 mg/L (≈ 34.7 µM). In addition, in the data set on BVDV-1 (strain PE515), the “SI: Selectivity index (ratio of CC50 to EC50)” value is “±10”. Moreover, the CC50 at 3 days in data set [1] was determined as 87 mg/L (≈ 336 µM).

Values taken from patent US8404707B2, “Imidazo [1, 2-a] pyrrolo [3, 2-c] pyridine compounds useful as pestivirus inhibitors” (Universite d'Auvergne Clermont 1, priority 2006, dated 2013).
